Laboratory results taken from ChEMBL document CHEMBL1145576, “Synthesis and structure-activity relationship of aminopyrimidine IKK2 inhibitors” (Bioorg Med Chem Lett, 2008).
pIC50: −log10 of the molar value.

What was measured:
[1] = molecular target: T1, Inhibitor of nuclear factor kappa-B kinase subunit beta (Homo sapiens, UniProt O14920); test: Inhibition of IKK2
T1 sequence (O14920 whole entry): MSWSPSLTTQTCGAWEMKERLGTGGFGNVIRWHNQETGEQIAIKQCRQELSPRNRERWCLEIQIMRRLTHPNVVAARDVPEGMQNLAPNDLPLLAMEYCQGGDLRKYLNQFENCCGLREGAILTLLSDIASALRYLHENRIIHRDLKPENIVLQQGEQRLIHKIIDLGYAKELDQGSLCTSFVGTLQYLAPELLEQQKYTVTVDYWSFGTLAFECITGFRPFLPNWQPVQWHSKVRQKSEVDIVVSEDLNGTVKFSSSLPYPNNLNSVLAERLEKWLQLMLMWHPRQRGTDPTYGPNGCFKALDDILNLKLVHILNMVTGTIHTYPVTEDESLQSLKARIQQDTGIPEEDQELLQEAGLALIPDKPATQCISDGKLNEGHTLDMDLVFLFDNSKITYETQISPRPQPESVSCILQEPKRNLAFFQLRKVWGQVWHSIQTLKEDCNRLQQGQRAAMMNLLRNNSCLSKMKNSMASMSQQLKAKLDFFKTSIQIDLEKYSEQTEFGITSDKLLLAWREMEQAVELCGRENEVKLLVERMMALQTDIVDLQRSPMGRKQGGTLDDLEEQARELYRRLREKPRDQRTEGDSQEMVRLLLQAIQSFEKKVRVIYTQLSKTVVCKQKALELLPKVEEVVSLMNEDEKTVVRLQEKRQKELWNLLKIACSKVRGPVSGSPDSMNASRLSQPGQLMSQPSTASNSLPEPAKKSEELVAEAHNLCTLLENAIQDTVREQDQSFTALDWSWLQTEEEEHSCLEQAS

[2] = molecular target: T2, Inhibitor of nuclear factor kappa-B kinase subunit alpha (Homo sapiens, UniProt O15111); test: Inhibition of IKK1
T2 sequence (O15111 whole entry): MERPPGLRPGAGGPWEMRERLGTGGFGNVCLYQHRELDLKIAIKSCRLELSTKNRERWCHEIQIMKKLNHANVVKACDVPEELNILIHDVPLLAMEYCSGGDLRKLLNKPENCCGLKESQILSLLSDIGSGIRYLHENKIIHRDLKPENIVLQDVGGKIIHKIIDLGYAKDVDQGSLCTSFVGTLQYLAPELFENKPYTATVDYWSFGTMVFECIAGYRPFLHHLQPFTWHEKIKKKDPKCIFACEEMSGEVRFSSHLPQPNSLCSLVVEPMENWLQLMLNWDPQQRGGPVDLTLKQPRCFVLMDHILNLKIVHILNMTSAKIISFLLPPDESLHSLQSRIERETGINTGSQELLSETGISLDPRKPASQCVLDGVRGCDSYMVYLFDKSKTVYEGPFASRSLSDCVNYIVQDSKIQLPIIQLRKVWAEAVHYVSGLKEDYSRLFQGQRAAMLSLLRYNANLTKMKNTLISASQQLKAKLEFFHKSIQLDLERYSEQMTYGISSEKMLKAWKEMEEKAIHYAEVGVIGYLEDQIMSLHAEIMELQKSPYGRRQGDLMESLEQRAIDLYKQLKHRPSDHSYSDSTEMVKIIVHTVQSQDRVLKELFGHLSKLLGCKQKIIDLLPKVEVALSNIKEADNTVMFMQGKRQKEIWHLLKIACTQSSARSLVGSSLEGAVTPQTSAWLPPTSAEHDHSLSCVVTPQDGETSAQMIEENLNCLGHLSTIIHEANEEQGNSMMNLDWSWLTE

[3] = Selectivity ratio of IC50 for IKK1 to IC50 for IKK2
[4] = test system: A549; test: Inhibition of TNF-alpha-stimulated E-selectin promoter transfected human A549 cells after 6 hrs; type: functional, cell-based; details: A549, 6 h
[5] = Selectivity ratio of IC50 for E-selectin promoter transfected in human A549 cells to IC50 for IKK2; type: functional
[6] = molecular target: T3, Inhibitor of nuclear factor kappa-B kinase subunit alpha (Homo sapiens) (UniProt O15111); test: Inhibition of IKK1 at 10 uM
T3 sequence (whole entry): T2 sequence (O15111 whole entry)

Row | Structure (SMILES) | pIC50 [1] | pIC50 [2] | Ratio IC50 [3] | pIC50 [4] | Ratio IC50 [5] | inhibition [6]
1 | O=S(=O)(Nc1ccc(-c2ccnc(Nc3ccc4ncsc4c3)n2)cc1)c1ccc2nonc2c1 | 6.64 | 5.32 | 21 | 4.75 | 77 | –
2 | O=S(=O)(c1ccc(-c2ccnc(Nc3ccc4ncsc4c3)n2)cc1)N1CCCC1 | 6.27 | – | – | 5.82 | 2.8 | 48%
3 | O=S(=O)(c1ccc(-c2ccnc(Nc3ccc4ncsc4c3)n2)cc1)N1CCSCC1 | 6.60 | 5.30 | – | 6.54 | 1.2 | –
4 | O=C(Nc1ccc(-c2ccnc(Nc3ccc4ncsc4c3)n2)cc1)C1CCNCC1 | 6.40 | 5.72 | – | 5.42 | 9.5 | –
5 | O=C(Nc1ccc(-c2ccnc(Nc3ccc4ncsc4c3)n2)cc1)C1CCCN1 (stereo unspecified) | 6.89 | 6.84 | 1 | – | – | –
6 | c1cn(-c2ccc(-c3ccnc(Nc4ccc5ncsc5c4)n3)cc2)cn1 | 6.15 | – | > 14 | – | – | 34%
7 | O=S(=O)(Nc1ccc(-c2ccnc(Nc3ccc4ncsc4c3)n2)cc1)c1ccc(Cl)cc1 | 6.00 | 5.52 | 3 | – | – | –
8 | O=S(=O)(Nc1ccc(-c2ccnc(Nc3ccc4ncsc4c3)n2)cc1)c1cc(Cl)c(Cl)s1 | 5.05 | – | – | – | – | –
9 | O=S(=O)(c1ccc(-c2ccnc(Nc3ccc4ncsc4c3)n2)cc1)N1CCOCC1 | 6.42 | 5.17 | – | 5.74 | 4.8 | –
10 | COc1ccc(S(=O)(=O)Nc2ccc(-c3ccnc(Nc4ccc5ncsc5c4)n3)cc2)cc1 | 5.05 | – | – | – | – | –
11 | NCCC(=O)Nc1ccc(-c2ccnc(Nc3ccc4ncsc4c3)n2)cc1 | 6.57 | 6.14 | 3 | – | – | –
12 | COc1cccc2nc(-c3cccs3)nc(NN3C(=O)C=C(C)C3=O)c12 [AS-602868] | – | 4.89 | – | – | – | –
13 | O=S(=O)(c1ccccc1)c1ccc(-c2ccnc(Nc3ccc4ncsc4c3)n2)cc1 | 6.36 | – | > 22 | – | – | 24%
14 | O=S(=O)(c1ccc(-c2ccnc(Nc3ccc4ncsc4c3)n2)cc1)N1CCCCC1 | 6.22 | – | > 17 | 5.68 | 3.5 | 30%
15 | CN1CCN(c2ccc(-c3ccnc(Nc4ccc5ncsc5c4)n3)cc2)CC1 | 6.39 | 5.58 | 6 | 5.90 | 3.1 | –
16 | O=S(=O)(c1ccc(-c2ccnc(Nc3ccc4ncsc4c3)n2)cc1)N1CCNCC1 | 7.19 | 6.07 | 13 | 5.24 | 89 | –
17 | CN(CCOc1ccc(-c2ccnc(Nc3ccc4ncsc4c3)n2)cc1)c1ccccn1 | 5.40 | – | – | – | – | –
18 | Cc1ccc(S(=O)(=O)Nc2ccc(-c3ccnc(Nc4ccc5ncsc5c4)n3)cc2)cc1 | 5.82 | – | – | – | – | –
19 | O=c1ccn(-c2ccc(-c3ccnc(Nc4ccc5ncsc5c4)n3)cc2)cc1 | 5.60 | – | > 4 | – | – | 14%
20 | CN(C)S(=O)(=O)c1ccc(-c2ccnc(Nc3ccc4ncsc4c3)n2)cc1 | 6.39 | – | > 24 | 5.72 | 4.7 | 28%
21 | c1cnc(Oc2ccc(-c3ccnc(Nc4ccc5ncsc5c4)n3)cc2)nc1 | 5.44 | – | – | – | – | –
22 | c1ccc(Oc2ccc(-c3ccnc(Nc4ccc5ncsc5c4)n3)cc2)cc1 | 5.18 | – | – | – | – | –
